# Measured values published in patent US9725460B2, “Oridonin analogs, compositions, and methods related thereto” (THE BOARD OF REGENTS OF THE UNIVERSITY OF TEXAS SYSTEM, priority 2013, dated 2017).
# Read-outs that look alike come from different tables or passages of the source.
# Legend:
# [1] = system: MCF-7; experiment: MTT cancer cell proliferation assay, MCF-7; type: cell-based, human; conditions: Homo sapiens
# Procedure: (§1) In Vitro Determination of Effects of Synthesized Diterpenoids on Cancer Cell Proliferation. Breast cancer cell lines MCF-7, MDA-MB-231, […] and MCF/ADR were seeded in 96-well plates at a density of 1×10^4 cells/well and treated with DMSO and 0.01, 0.1, 1, 5, 10, and 100 μM of individual compound for 48 h, and then 20 μL of 3-(4,5-dimethylthiazol-2-yl)-2,5-diphenyltetrazolium bromide (MTT) (5 mg/mL in PBS) was added to each well and further incubated for another 4 h. Then MTT solution was removed, and 150 μL of DMSO was added to each well. Absorbance of all wells was determined by measuring OD at 550 nm after a 10 min incubation on a 96-well GlowMaxate absorbance reader (Promega, Madison, Wis.). Each individual compound was tested in quadruplicate wells for each concentration.
# (§2) The growth inhibitory effects of the newly generated pyran-fused diterpenoids were evaluated in four breast cancer cell lines MCF-7 (ER-positive), MDAMB-231 (ER-negative and triple-negative), MDA-MB-468 (ER-negative and triple-negative) as well as MCF-7/ADR (adriamycin-resistant) using MTT assays as described in the Experimental Section.
# [2] = system: MDA-MB-231; experiment: MTT cancer cell proliferation assay, MDA-MB-231; type: cell-based, human; conditions: Homo sapiens
# Procedure: as §1, §2
# [3] = system: AsPC1; experiment: Cancer cell proliferation assay, AsPC1; type: cell-based; conditions: Homo sapiens
# Procedure: (§3) In Vitro Determination of Effects of Synthesized Diterpenoids on Cancer Cell Proliferation. […] Then MTT solution was removed, and 150 μL of DMSO was added to each well. Absorbance of all wells was determined by measuring OD at 550 nm after a 10 min incubation on a 96-well GlowMaxate absorbance reader (Promega, Madison, Wis.). Each individual compound was tested in quadruplicate wells for each concentration.
# [4] = system: Panc-1; experiment: Cancer cell proliferation assay, Panc-1; type: cell-based; conditions: Homo sapiens
# Procedure: as §3
# [5] = system: DU145; experiment: Cancer cell proliferation assay, DU145; type: cell-based; conditions: Homo sapiens
# [6] = system: breast, pancreatic, and prostate cancer cell lines; experiment: Anti-proliferation effects against cancer cell lines; type: cell-based, human; conditions: summary of Tables 1 and 2
# Procedure: as §1
# [7] = Aqueous solubility; type: physicochemical; conditions: for Aqueous solubility compared with oridonin: FIG. 2; for solubility: water
# [8] = system: MDA-MB-468; experiment: MTT cancer cell proliferation assay, MDA-MB-468; type: cell-based, human; conditions: Homo sapiens, MDA-MB-468, 48 h, Table 3; pyran-fused diterpenoids; MTT 48 h; mean ± SE of three experiments
# Procedure: as §1
# as §2, with “Section. The capability of these new molecules to inhibit the growth of cancer cells was summarized in Table 3 and compared with that of adriamycin and 1 spontaneously.” for “Section.”
# [9] = system: MCF-7/ADR; experiment: MTT growth inhibition, drug-resistant MCF-7/ADR; type: cell-based, human; conditions: Homo sapiens, NCI/ADR-RES, 48 h, Table 3; adriamycin-resistant; MTT 48 h; mean ± SE of three experiments
# Procedure: as §1
# as §2, with “Section. The capability of these new molecules to inhibit the growth of cancer cells was summarized in Table 3 and compared with that of adriamycin and 1 spontaneously.” for “Section.”
# [10] = MCF7, Table 1a, breast cancer, read-out: IC50 (μM) MCF-7
# [11] = MCF7, Table 2b, mean of at least three experiments, read-out: Effect on proliferation MCF-7 (ER positive) (IC50)
# [12] = MDA-MB-231, Table 1a, breast cancer, read-out: IC50 (μM) MDA-MB-231
# [13] = MDA-MB-231, Table 2b, mean of at least three experiments, read-out: Effect on proliferation MDA-MB-231 (ER negative) (IC50)
# [14] = ASPC1, Table 1a, pancreatic cancer, read-out: IC50 (μM) AsPC1
# [15] = ASPC1, Table 2b, mean of at least three experiments, read-out: Effect on proliferation AsPC1 (IC50)
# [16] = PANC-1, Table 1a, pancreatic cancer, read-out: IC50 (μM) Panc-1
# [17] = PANC-1, Table 2b, mean of at least three experiments, read-out: Effect on proliferation Panc-1 (IC50)
# [18] = DU-145, Table 1a, prostate cancer, read-out: IC50 (μM) DU145
# [19] = DU-145, Table 2b, mean of at least three experiments, read-out: Effect on proliferation DU145 (IC50)
# [20] = in the form of HCl salt, read-out: Aqueous solubility (saturated concentration)
"IC50 [1, 10] [µM]","IC50 [1, 11] [µM]","IC50 [2, 12] [µM]","IC50 [2, 13] [µM]","IC50 [3, 14] [µM]","IC50 [3, 15] [µM]","IC50 [4, 16] [µM]","IC50 [4, 17] [µM]","IC50 [5, 18] [µM]","IC50 [5, 19] [µM]","IC50 values, anti-proliferation effects against cancer cell lines [6]","solubility [7, 20] [mg/mL]",SMILES,other results
0.59,0.6,1.06,1.1,1.39,1.4,4.01,4,4.22,4.2,low micromolar to nanomolar,–,"C=C1C(=O)[C@]23[C@H](O)[C@H]1CC[C@H]2[C@@]12CO[C@]3(O)[C@@H](O)[C@@H]1C(C)(C)Cc1sc(NCCCC)nc12 [CYD-6-28, (5aR,6S ,7S,7aR,10S,12aS,12bR,15R)-2-(butylamino)-6,7,15-trihydroxy-5,5-dimethyl-9-methylene-5,5a,6,7,10,11,12,12a-octahydro-4H-7,12b-(epoxymethano)-7a,10-methanocyclohepta[7,8]naphtho[1,2-d]thiazol-8(9H)-one]",–
1.28,1.3,2.06,2.1,1.84,1.8,2.33,2.3,4.05,4.1,low micromolar to nanomolar,81.2,"C=C1C(=O)[C@]23[C@H](O)[C@H]1CC[C@H]2[C@@]12CO[C@]3(O)[C@@H](O)[C@@H]1C(C)(C)Cc1sc(NC)nc12 [CYD-5-54, (5aR,6S,7S,7aR,10S,12aS,12bR,15R)-6,7,15-trihydroxy-5,5-dimethyl-2-(methylamino)-9-methylene-5,5a,6,7,10,11,12,12a-octahydro-4H-7,12b-(epoxymethano)-7a,10-methanocyclohepta[7,8]naphtho[1,2-d]thiazol-8(9H)-one]",Aqueous solubility compared with oridonin [7]: significantly improved solubility; Improvement of aqueous solubility in comparison with oridonin ([7]; HCl salt vs oridonin (1.29 mg/mL)): ~62 fold

# The remaining lines, values behind:
SMILES,"IC50 [1, 10] [µM]","IC50 [1, 11] [µM]","IC50 [2, 12] [µM]","IC50 [2, 13] [µM]","IC50 [3, 14] [µM]","IC50 [3, 15] [µM]","IC50 [4, 16] [µM]","IC50 [4, 17] [µM]","IC50 [5, 18] [µM]","IC50 [5, 19] [µM]","IC50 values, anti-proliferation effects against cancer cell lines [6]","solubility [7, 20] [mg/mL]",other results
"C=C1C(=O)[C@@]23C(CCC1[C@H]2O)[C@@]12COC3(O)[C@@H](O)C1C(C)(C)Cc1sc(NCCN3CCCCC3)nc12 (stereo in doubt) [CYD-6-20, (6S,7S,7aR,10R,12bR,15R)-6,7,15-trihydroxy-5,5-dimethyl-9-methylene-2-((2-(piperidin-1-yl)ethyl)amino)-5,5a,6,7,10,11,12,12a-octahydro-4H-7,12b(epoxymethano)-7a,10-methanocyclohepta[7,8]naphtho[1,2-d]thiazol-8(9H)-one]",1,1,1.83,1.8,1.1,1.1,1.54,1.5,1.16,1.2,–,> 100,–
"C=C1C(=O)[C@]23[C@H](O)[C@H]1CC[C@H]2[C@@]12CO[C@]3(O)[C@@H](O)[C@@H]1C(C)(C)Cc1sc(NC(C)C)nc12 [CYD-6-30, (5aR,6S,7S,7aR,10S,12aS,12bR,15R)-6,7,15-trihydroxy-2-(isopropylamino)-5,5-dimethyl-9-methylene-5,5a,6,7,10,11,12,12a-octahydro-4H-7,12b-(epoxymethano)-7a,10-methanocyclohepta[7,8]naphtho[1,2-d]thiazol-8(9H)-one]",0.82,0.8,0.28,0.3,1.45,1.4,3.27,3.3,5.31,5.3,low micromolar to nanomolar,–,–
"C=C1C(=O)[C@@]23C(CC[C@H]1[C@H]2O)[C@@]12CO[C@]3(O)[C@@H](O)C1C(C)(C)Cc1sc(NC3CCCCC3)nc12 (stereo partly drawn) [CYD-6-17-2, (6S,7S,7aR,10R,12bR,15R)-2-(cyclohexylamino)-6,7,15-trihydroxy-5,5-dimethyl-9-methylene-5,5a,6,7,10,11,12,12a-octahydro-4H-7,12b-(epoxymethano)-7a,10-methanocyclohepta[7,8]naphtho[1,2-d]thiazol-8(9H)-one]",0.94,0.9,0.83,0.8,1.65,1.7,3.74,3.7,1.82,1.8,low micromolar to nanomolar,–,–
"C=C1C(=O)[C@@]23C(CC[C@H]1[C@H]2O)[C@@]12CO[C@]3(O)[C@@H](O)C1C(C)(C)Cc1sc(C)nc12 (stereo partly drawn) [CYD-6-19, (6S,7S,7aR,10R,12bR,15R)-6,7,15-trihydroxy-2,5,5-trimethyl-9-methylene-5,5a,6,7,10,11,12,12a-octahydro-4H-7,12b-(epoxymethano)-7a,10-methanocyclohepta[7,8]naphtho[1,2-d]thiazol-8(9H)-one]",–,–,–,–,–,–,–,–,–,–,–,–,"IC50 ([1]; MCF7, read-out: Effect on proliferation MCF-7 (ER positive) (IC50)): 2.6 µM; IC50 ([1]; MCF7, read-out: IC50 (μM) MCF-7): 2.63 µM; IC50 ([2]; MDA-MB-231, read-out: Effect on proliferation MDA-MB-231 (ER negative) (IC50)): 6.9 µM; IC50 ([2]; MDA-MB-231, read-out: IC50 (μM) MDA-MB-231): 6.88 µM; IC50 ([3]; ASPC1, read-out: Effect on proliferation AsPC1 (IC50)): 6.5 µM; IC50 ([3]; ASPC1, read-out: IC50 (μM) AsPC1): 6.46 µM; IC50 ([4]; PANC-1, read-out: Effect on proliferation Panc-1 (IC50)): 7.8 µM; IC50 ([4]; PANC-1, read-out: IC50 (μM) Panc-1): 7.83 µM; IC50 ([5]; DU-145, read-out: Effect on proliferation DU145 (IC50)): 7.6 µM; IC50 ([5]; DU-145, read-out: IC50 (μM) DU145): 7.63 µM; Aqueous solubility compared with oridonin [7]: significantly improved solubility; solubility ([7]; compound as such, read-out: Aqueous solubility): 4.47 mg/mL"
"C=C1C(=O)[C@]23[C@H](O)[C@H]1CC[C@H]2[C@@]12CO[C@]3(O)[C@@H](O)[C@@H]1C(C)(C)Cc1sc(NC(=N)N)nc12 [CYD-6-29, 1-((5aR,6S,7S,7aR,10S,12aS,12bR,15R)-6,7,15-trihydroxy-5,5-dimethyl-9-methylene-8-oxo-5,5a,6,7,8,9,10,11,12,12a-decahydro-4H-7,12b-(epoxymethano)-7a,10-methanocyclohepta[7,8]naphtho[1,2-d]thiazol-2-yl)guanidine]",3.43,3.4,> 10,> 10,> 10,> 10,15.4,> 10,35.9,> 10,–,> 100,–
C=C1C(=O)[C@@]23[C@@H]4OC(C)(C)O[C@@]25OC[C@]2(C6=C(CC[C@H](OCCCN=[N+]=[N-])O6)CC(C)(C)[C@H]2[C@@H]5O)[C@@H]3CC[C@@H]14 [CYD-8-87],–,–,–,–,–,–,–,–,–,–,–,–,"IC50 ([1]; MCF7, 48 h, Table 3, pyran-fused diterpenoids, MTT 48 h, mean ± SE of three experiments, read-out: IC50 (μM) MCF-7): 7.79 ± 3.18 µM; IC50 ([2]; MDA-MB-231, 48 h, Table 3, pyran-fused diterpenoids, MTT 48 h, mean ± SE of three experiments, read-out: IC50 (μM) MDA-MB-231): 7.57 ± 0.44 µM; IC50 [8]: 6.63 ± 0.77 µM; IC50 [9]: 8.6 ± 0.7 µM"
